Measured values taken from patent publication US11447466B2, “Substituted indole compounds useful as inhibitors of TLR7/8/9” (BRISTOL-MYERS SQUIBB COMPANY, priority 2017, dated 2022).
pIC50: −log10 of the molar value.

Columns and labels:
Assay type in all cases: cell-based
human TLR7 = molecular target: T1, human TLR7 (Homo sapiens, UniProt Q9NYK1); assay: TLR7 inhibition reporter assay (HEK-Blue SEAP reporter, gardiquimod stimulation); settings: HEK-Blue cells overexpressing human TLR7, SEAP reporter, gardiquimod 7.5 μM, 22 hour incubation
T1 construct: host or cells: HEK-Blue cells
T1 sequence (Q9NYK1 27-1049): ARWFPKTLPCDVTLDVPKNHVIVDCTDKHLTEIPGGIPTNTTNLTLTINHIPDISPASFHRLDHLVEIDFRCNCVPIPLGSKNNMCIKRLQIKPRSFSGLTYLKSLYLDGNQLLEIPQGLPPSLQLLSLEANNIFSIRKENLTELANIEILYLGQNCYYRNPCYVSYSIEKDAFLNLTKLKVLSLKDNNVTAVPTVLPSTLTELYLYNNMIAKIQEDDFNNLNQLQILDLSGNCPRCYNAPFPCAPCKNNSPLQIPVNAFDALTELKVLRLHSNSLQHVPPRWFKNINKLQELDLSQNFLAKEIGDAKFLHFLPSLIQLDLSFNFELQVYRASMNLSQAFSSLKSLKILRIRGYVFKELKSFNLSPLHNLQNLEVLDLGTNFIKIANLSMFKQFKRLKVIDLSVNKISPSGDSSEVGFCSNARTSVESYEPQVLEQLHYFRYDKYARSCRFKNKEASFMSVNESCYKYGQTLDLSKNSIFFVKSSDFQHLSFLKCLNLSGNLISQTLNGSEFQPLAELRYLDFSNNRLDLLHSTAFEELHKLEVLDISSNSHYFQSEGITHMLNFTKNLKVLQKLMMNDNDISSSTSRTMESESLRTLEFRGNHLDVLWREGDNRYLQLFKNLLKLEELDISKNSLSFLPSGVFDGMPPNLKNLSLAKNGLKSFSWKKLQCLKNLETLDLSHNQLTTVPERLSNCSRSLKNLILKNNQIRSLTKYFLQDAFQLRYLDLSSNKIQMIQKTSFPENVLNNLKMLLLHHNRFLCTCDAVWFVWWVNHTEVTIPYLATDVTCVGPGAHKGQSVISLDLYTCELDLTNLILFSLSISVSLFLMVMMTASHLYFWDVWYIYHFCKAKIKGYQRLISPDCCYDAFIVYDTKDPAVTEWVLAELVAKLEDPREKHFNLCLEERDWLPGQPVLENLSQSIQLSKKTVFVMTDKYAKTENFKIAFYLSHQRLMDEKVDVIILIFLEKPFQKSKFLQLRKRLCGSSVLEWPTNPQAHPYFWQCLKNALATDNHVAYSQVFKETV
In short: (§1)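 Agonists used: gardiquimod 7.5 μM (TLR7), R848 15.9 μM (TLR8), ODN2006 5 nM (TLR9), added after 30 min room-temperature compound pre-treatment (0.05 nM–50 μM) of receptor-overexpressing HEK-Blue cells. SEAP reporter (NF-κB/AP-1 driven) read after 22 h at 37 °C; inhibition scaled between agonist+DMSO and reference-inhibitor wells.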

human TLR8 = molecular target: T2, human TLR8 (Homo sapiens, UniProt Q9NR97); assay: TLR8 inhibition reporter assay (HEK-Blue SEAP reporter, R848 stimulation); settings: HEK-Blue cells overexpressing human TLR8, SEAP reporter, R848 15.9 μM, 22 hour incubation
T2 construct: host or cells: HEK-Blue cells
T2 sequence (Q9NR97 27-1041): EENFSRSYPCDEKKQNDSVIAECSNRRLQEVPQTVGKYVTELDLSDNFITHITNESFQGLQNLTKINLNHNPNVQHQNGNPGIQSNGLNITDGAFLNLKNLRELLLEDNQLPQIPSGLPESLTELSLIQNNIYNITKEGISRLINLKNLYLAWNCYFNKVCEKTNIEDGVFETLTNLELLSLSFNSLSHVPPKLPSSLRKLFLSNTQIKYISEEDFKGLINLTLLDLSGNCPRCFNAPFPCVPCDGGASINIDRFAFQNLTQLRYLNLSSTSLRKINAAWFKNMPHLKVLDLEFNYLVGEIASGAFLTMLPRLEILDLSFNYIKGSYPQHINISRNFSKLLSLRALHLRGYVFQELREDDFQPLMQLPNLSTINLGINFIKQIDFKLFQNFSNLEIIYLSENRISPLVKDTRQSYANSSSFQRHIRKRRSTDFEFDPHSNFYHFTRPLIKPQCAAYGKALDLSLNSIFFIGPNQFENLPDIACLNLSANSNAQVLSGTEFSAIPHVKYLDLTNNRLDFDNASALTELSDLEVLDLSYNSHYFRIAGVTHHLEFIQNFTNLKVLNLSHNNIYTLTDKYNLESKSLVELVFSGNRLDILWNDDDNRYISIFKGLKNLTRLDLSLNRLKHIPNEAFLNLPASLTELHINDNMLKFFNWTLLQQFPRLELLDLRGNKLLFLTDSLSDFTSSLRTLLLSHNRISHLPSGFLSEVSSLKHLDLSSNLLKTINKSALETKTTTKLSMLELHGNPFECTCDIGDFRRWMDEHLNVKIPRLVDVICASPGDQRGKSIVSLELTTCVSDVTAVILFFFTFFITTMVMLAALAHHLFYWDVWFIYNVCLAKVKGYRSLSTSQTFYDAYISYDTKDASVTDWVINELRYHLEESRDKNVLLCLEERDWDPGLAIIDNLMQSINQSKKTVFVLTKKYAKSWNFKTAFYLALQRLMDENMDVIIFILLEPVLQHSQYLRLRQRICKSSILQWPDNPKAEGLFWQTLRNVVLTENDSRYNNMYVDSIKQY
In short: as §1

human TLR9 = molecular target: T3, human TLR9 (Homo sapiens, UniProt Q9NR96); assay: TLR9 inhibition reporter assay (HEK-Blue SEAP reporter, ODN2006 stimulation); settings: HEK-Blue cells overexpressing human TLR9, SEAP reporter, ODN2006 5 nM, 22 hour incubation
T3 construct: host or cells: HEK-Blue cells
T3 sequence (Q9NR96 26-1032): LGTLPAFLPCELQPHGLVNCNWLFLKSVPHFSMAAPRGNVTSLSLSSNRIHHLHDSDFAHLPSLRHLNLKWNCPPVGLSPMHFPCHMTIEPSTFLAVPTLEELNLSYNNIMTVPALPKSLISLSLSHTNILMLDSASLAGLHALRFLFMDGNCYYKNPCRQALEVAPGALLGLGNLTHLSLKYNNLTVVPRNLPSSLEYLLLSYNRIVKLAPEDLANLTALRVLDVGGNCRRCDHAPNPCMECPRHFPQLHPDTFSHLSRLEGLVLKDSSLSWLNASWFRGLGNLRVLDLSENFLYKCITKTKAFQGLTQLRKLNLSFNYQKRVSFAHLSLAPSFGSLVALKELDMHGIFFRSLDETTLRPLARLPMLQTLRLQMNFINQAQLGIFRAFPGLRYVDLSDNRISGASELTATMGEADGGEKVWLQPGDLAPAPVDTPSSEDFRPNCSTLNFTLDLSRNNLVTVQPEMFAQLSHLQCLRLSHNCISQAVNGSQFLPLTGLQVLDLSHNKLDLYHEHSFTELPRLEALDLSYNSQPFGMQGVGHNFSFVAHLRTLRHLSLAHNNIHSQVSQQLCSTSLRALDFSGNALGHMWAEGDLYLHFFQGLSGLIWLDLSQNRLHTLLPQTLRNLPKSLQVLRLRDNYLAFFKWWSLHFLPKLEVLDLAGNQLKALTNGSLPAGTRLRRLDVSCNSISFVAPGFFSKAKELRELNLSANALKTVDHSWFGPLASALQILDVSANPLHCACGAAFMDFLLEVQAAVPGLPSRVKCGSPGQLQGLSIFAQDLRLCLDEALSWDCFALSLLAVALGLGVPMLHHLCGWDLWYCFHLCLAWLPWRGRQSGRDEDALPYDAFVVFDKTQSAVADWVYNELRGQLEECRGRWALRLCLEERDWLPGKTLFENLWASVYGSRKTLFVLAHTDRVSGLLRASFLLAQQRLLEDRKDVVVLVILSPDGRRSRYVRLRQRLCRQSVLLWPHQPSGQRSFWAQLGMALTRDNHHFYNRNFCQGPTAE
In short: as §1

Row | Structure (SMILES) | pIC50 (human TLR7) | pIC50 (human TLR8) | pIC50 (human TLR9)
1 | Cc1cc(-c2[nH]c3ccc(C4CCN([C@H]5COCC[C@@H]5O)CC4)cc3c2C(C)C)cn(C)c1=O [Example 314, 5-(5-(1-((3S,4S)-4-hydroxytetrahydro-2H-pyran-3-yl)piperidin-4-yl)-3-isopropyl-1H-indol-2-yl)-1,3-dimethylpyridin-2(1H)-one] | 8.28 | 8.29 | 5.00
2 | Cc1cc(-c2[nH]c3ccc(C4CCN(CC5CCOC5)CC4)cc3c2C(C)C)cn(C)c1=O (stereo not drawn) [Example 225, 5-(3-isopropyl-5-(1-((tetrahydrofuran-3-yl)methyl)piperidin-4-yl)-1H-indol-2-yl)-1,3-dimethylpyridin-2(1H)-one] | 8.34 | 8.44 | 5.16
3 | Cc1cc(-c2[nH]c3ccc(C4CCN(CC(O)C(C)C)CC4)cc3c2C(C)C)cn(C)c1=O (stereo not drawn) [Example 324, 5-(5-(1-(2-hydroxy-3-methylbutyl)piperidin-4-yl)-3-isopropyl-1H-indol-2-yl)-1,3-dimethylpyridin-2(1H)-one] | 8.60 | 8.55 | 4.94
4 | Cc1cc(-c2[nH]c3ccc(C4CCN(CC(=O)N5CC[C@H](O)C5)CC4)cc3c2C(C)C)cn(C)c1=O [Example 119, (S)-5-(5-(1-(2-(3-hydroxypyrrolidin-1-yl)-2-oxoethyl)piperidin-4-yl)-3-isopropyl-1H-indol-2-yl)-1,3-dimethylpyridin-2(1H)-one] | 7.94 | 7.83 | 5.94
5 | CCNC(=O)CN1CCC(c2ccc3[nH]c(-c4cn(C)c(=O)c(Cl)c4C)c(C(C)C)c3c2)CC1 [Example 155, 2-(4-(2-(5-chloro-1,4-dimethyl-6-oxo-1,6-dihydropyridin-3-yl)-3-isopropyl-1H-indol-5-yl)piperidin-1-yl)-N-ethylacetamide] | 8.28 | 7.62 | 4.67
6 | Cc1cc(-c2[nH]c3ccc(C4CCN(C(=O)CN5CCCC5=O)CC4)cc3c2C(C)C)cn(C)c1=O [Example 300, 5-(3-isopropyl-5-(1-(2-(2-oxopyrrolidin-1-yl)acetyl)piperidin-4-yl)-1H-indol-2-yl)-1,3-dimethylpyridin-2(1H)-one] | 7.37 | 7.37 | ≤ 4.30
7 | CCn1cc(-c2[nH]c3ccc(C4CCN(CC(=O)N(C)C)CC4)cc3c2C(C)C)c(C)c(C)c1=O [Example 136, 2-(4-(2-(1-ethyl-4,5-dimethyl-6-oxo-1,6-dihydropyridin-3-yl)-3-isopropyl-1H-indol-5-yl)piperidin-1-yl)-N,N-dimethylacetamide] | 7.92 | 7.87 | 5.71
8 | Cc1cc(-c2[nH]c3ccc(C4CCN(CC(C)(C)O)CC4)cc3c2C(C)C)cn(CC(C)C)c1=O [Example 328, 5-(5-(1-(2-hydroxy-2-methylpropyl)piperidin-4-yl)-3-isopropyl-1H-indol-2-yl)-1-isobutyl-3-methylpyridin-2(1H)-one] | 7.31 | 7.26 | 5.22
9 | Cc1cc(-c2[nH]c3ccc(C4CCN(CC(C)(C)O)CC4)cc3c2C(C)C)c(C)n(C)c1=O [Example 316, 5-(5-(1-(2-hydroxy-2-methylpropyl)piperidin-4-yl)-3-isopropyl-1H-indol-2-yl)-1,3,6-trimethylpyridin-2(1H)-one] | 7.99 | 8.72 | 5.51
10 | Cc1cc(-c2[nH]c3ccc(C4CCN(Cc5ccn(C)n5)CC4)cc3c2C(C)C)cn(C)c1=O [Example 195, 5-(3-isopropyl-5-(1-((1-methyl-1H-pyrazol-3-yl)methyl)piperidin-4-yl)-1H-indol-2-yl)-1,3-dimethylpyridin-2(1H)-one] | 8.41 | 8.59 | 5.28
11 | Cc1cc(-c2[nH]c3ccc(C4CCN(CC(=O)N(C)C)CC4)cc3c2C(C)C)cn(CCO)c1=O [Example 167, 2-(4-(2-(1-(2-hydroxyethyl)-5-methyl-6-oxo-1,6-dihydropyridin-3-yl)-3-isopropyl-1H-indol-5-yl)piperidin-1-yl)-N,N-dimethylacetamide] | 7.21 | 7.81 | 4.31
